Measured values taken from ChEMBL document CHEMBL1909294, “Translating clinical findings into knowledge in drug safety evaluation--drug induced liver injury prediction system (DILIps)” (PLoS Comput Biol, 2011).

Assays:
[1] = system: Hepatotoxicity;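 for HepSE bilirubinemia: bilirubinemia hepatic side effect score drawn from the DILIps training data, a prediction system for drug-induced liver injury; call rule not given here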;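 for HepSE cholecystitis: Cholecystitis-related hepatic side effect score drawn from the DILIps (drug-induced liver injury prediction) training data set; call rule not given here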;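 for HepSE cholelithiasis: hepatic side effect score for cholelithiasis, drawn from the DILIps training data for predicting drug-induced liver injury; call rule not given here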;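 for HepSE cirrhosis: cirrhosis hepatic side effect score taken from the DILIps (drug-induced liver injury prediction) training set; call rule not given here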;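 for HepSE elevated liver function tests: hepatic side effect score for raised liver function tests, as recorded in the DILIps training set used for predicting drug-induced liver injury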; for HepSE hepatic failure: call rule not given here;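 for HepSE hepatomegaly: hepatic side effect score for hepatomegaly, taken from the training set of the DILIps drug-induced liver injury prediction system; call rule not given here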
[2] = system: Hepatotoxicity; remark: listed apart in the source;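 for HepSE bilirubinemia: bilirubinemia hepatic side effect score drawn from the DILIps training data, a prediction system for drug-induced liver injury; call rule not given here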;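 for HepSE cholecystitis: Cholecystitis-related hepatic side effect score drawn from the DILIps (drug-induced liver injury prediction) training data set; call rule not given here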;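 for HepSE cholelithiasis: hepatic side effect score for cholelithiasis, drawn from the DILIps training data for predicting drug-induced liver injury; call rule not given here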;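 for HepSE cirrhosis: cirrhosis hepatic side effect score taken from the DILIps (drug-induced liver injury prediction) training set; call rule not given here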;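 for HepSE elevated liver function tests: hepatic side effect score for raised liver function tests, as recorded in the DILIps training set used for predicting drug-induced liver injury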; for HepSE hepatic failure: call rule not given here
[3] = system: Hepatotoxicity; remark: listed apart in the source;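 for HepSE bilirubinemia: bilirubinemia hepatic side effect score drawn from the DILIps training data, a prediction system for drug-induced liver injury; call rule not given here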;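 for HepSE cholecystitis: Cholecystitis-related hepatic side effect score drawn from the DILIps (drug-induced liver injury prediction) training data set; call rule not given here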;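 for HepSE cholelithiasis: hepatic side effect score for cholelithiasis, drawn from the DILIps training data for predicting drug-induced liver injury; call rule not given here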;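 for HepSE cirrhosis: cirrhosis hepatic side effect score taken from the DILIps (drug-induced liver injury prediction) training set; call rule not given here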;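 for HepSE elevated liver function tests: hepatic side effect score for raised liver function tests, as recorded in the DILIps training set used for predicting drug-induced liver injury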; for HepSE hepatic failure: call rule not given here
[4] = system: Hepatotoxicity; remark: listed apart in the source;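 for HepSE bilirubinemia: bilirubinemia hepatic side effect score drawn from the DILIps training data, a prediction system for drug-induced liver injury; call rule not given here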;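 for HepSE cholecystitis: Cholecystitis-related hepatic side effect score drawn from the DILIps (drug-induced liver injury prediction) training data set; call rule not given here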;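 for HepSE cholelithiasis: hepatic side effect score for cholelithiasis, drawn from the DILIps training data for predicting drug-induced liver injury; call rule not given here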;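 for HepSE cirrhosis: cirrhosis hepatic side effect score taken from the DILIps (drug-induced liver injury prediction) training set; call rule not given here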;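 for HepSE elevated liver function tests: hepatic side effect score for raised liver function tests, as recorded in the DILIps training set used for predicting drug-induced liver injury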; for HepSE hepatic failure: call rule not given here
[5] = system: Hepatotoxicity; remark: listed apart in the source; for HepSE hepatic failure: call rule not given here
[6] = system: Hepatotoxicity; remark: listed apart in the source; for HepSE hepatic failure: call rule not given here
[7] = system: Hepatotoxicity; remark: listed apart in the source
[8] = system: Hepatotoxicity; remark: listed apart in the source
[9] = system: Hepatotoxicity; remark: listed apart in the source
[10] = system: Hepatotoxicity; remark: listed apart in the source
[11] = system: Hepatotoxicity; remark: listed apart in the source
[12] = system: Hepatotoxicity; remark: listed apart in the source
[13] = system: Hepatotoxicity; remark: listed apart in the source
[14] = system: Hepatotoxicity; remark: listed apart in the source

Row | SMILES | HepSE_bilirubinemia [1] | HepSE_cholecystitis [2] | HepSE_cholelithiasis [3] | HepSE_cirrhosis [4] | HepSE_elevated liver function tests [5] | HepSE_hepatic failure [6] | HepSE_hepatic necrosis [7] | HepSE_hepatitis [8] | HepSE_hepatomegaly [9] | HepSE_jaundice [10] | HepSE_liver disease [11] | HepSE_liver fatty [12] | HepSE_liver function tests abnormal [13] | HepSE_Combined Scores [14] | other results
1 | Cc1nc(Nc2ncc(C(=O)Nc3c(C)cccc3Cl)s2)cc(N2CCN(CCO)CC2)n1.O [DASATINIB] | 0 | 1 | 0 | 0 | 0 | 0 | 0 | 1 | 0 | 0 | 0 | 0 | 1 | 3 | 
2 | COc1cccc2c1C(=O)c1c(O)c3c(c(O)c1C2=O)C[C@@](O)(C(C)=O)C[C@@H]3O[C@H]1C[C@H](N)[C@H](O)[C@H](C)O1 [DAUNORUBICIN] | 0 | 0 | 0 | 0 | 0 | 0 | 0 | 0 | 1 | 0 | 0 | 0 | 0 | 1 | 
3 | O=C(O)c1ccc(-n2nc(-c3ccccc3O)nc2-c2ccccc2O)cc1 [DEFERASIROX] | 0 | 0 | 1 | 1 | 0 | 1 | 0 | 1 | 0 | 0 | 0 | 0 | 1 | 5 | 
4 | CC(=O)N(O)CCCCCNC(=O)CCC(=O)N(O)CCCCCNC(=O)CCC(=O)N(O)CCCCCN [DEFEROXAMINE] | 0 | 0 | 0 | 0 | 0 | 0 | 0 | 0 | 0 | 0 | 0 | 0 | 0 | 0 | 
5 | CC(C)Nc1cccnc1N1CCN(C(=O)c2cc3cc(NS(C)(=O)=O)ccc3[nH]2)CC1 [DELAVIRDINE] | 1 | 0 | 0 | 0 | 0 | 1 | 0 | 1 | 1 | 1 | 0 | 0 | 0 | 5 | 
6 | CN(C)[C@@H]1C(O)=C(C(N)=O)C(=O)[C@@]2(O)C(O)=C3C(=O)c4c(O)ccc(Cl)c4[C@@H](O)[C@H]3C[C@@H]12 [DEMECLOCYCLINE] | 0 | 0 | 0 | 0 | 0 | 1 | 0 | 1 | 0 | 0 | 0 | 0 | 0 | 2 | 
7 | CNCCCN1c2ccccc2CCc2ccccc21 [DESIPRAMINE] |  |  |  |  |  |  |  |  |  |  |  |  |  |  | HepSE_bilirubinemia ([1]; Liver): 0; HepSE_cholecystitis ([2]; Liver): 0; HepSE_cholelithiasis ([3]; Liver): 0; HepSE_cirrhosis ([4]; Liver): 0; HepSE_elevated liver function tests ([5]; Liver): 1; HepSE_hepatic failure ([6]; Liver): 0; HepSE_hepatic necrosis ([7]; Liver): 0; HepSE_hepatitis ([8]; Liver): 1; HepSE_hepatomegaly ([9]; Liver): 0; HepSE_jaundice ([10]; Liver): 1; HepSE_liver disease ([11]; Liver): 0; HepSE_liver fatty ([12]; Liver): 0; HepSE_liver function tests abnormal ([13]; Liver): 0; HepSE_Combined Scores ([14]; Liver): 3
8 | NC(=O)CC[C@@H]1NC(=O)[C@H](Cc2ccccc2)NC(=O)[C@H](Cc2ccc(O)cc2)NC(=O)CCSSC[C@@H](C(=O)N2CCC[C@H]2C(=O)N[C@H](CCCN=C(N)N)C(=O)NCC(N)=O)NC(=O)[C@H](CC(N)=O)NC1=O [DESMOPRESSIN] | 0 | 0 | 0 | 0 | 0 | 0 | 0 | 0 | 0 | 0 | 0 | 0 | 0 | 0 | 
9 | CC1(C)O[C@@H]2C[C@H]3[C@@H]4CCC5=CC(=O)C=C[C@]5(C)[C@H]4[C@@H](O)C[C@]3(C)[C@]2(C(=O)CO)O1 [DESONIDE] | 0 | 0 | 0 | 0 | 0 | 0 | 0 | 0 | 0 | 0 | 0 | 0 | 0 | 0 | 
10 | C[C@@H]1C[C@H]2[C@@H]3CCC4=CC(=O)C=C[C@]4(C)[C@@]3(F)[C@@H](O)C[C@]2(C)[C@H]1C(=O)CO [DESOXIMETASONE] | 0 | 0 | 0 | 0 | 0 | 0 | 0 | 0 | 0 | 0 | 0 | 0 | 0 | 0 | 
11 | CN(C)CC(c1ccc(O)cc1)C1(O)CCCCC1 (stereo not drawn) [DESVENLAFAXINE] | 0 | 0 | 0 | 0 | 0 | 0 | 0 | 0 | 0 | 0 | 0 | 0 | 0 | 0 | 
12 | C[C@@H]1C[C@H]2[C@@H]3CCC4=CC(=O)C=C[C@]4(C)[C@@]3(F)[C@@H](O)C[C@]2(C)[C@@]1(O)C(=O)CO [DEXAMETHASONE] | 0 | 0 | 0 | 0 | 0 | 0 | 0 | 0 | 1 | 0 | 0 | 0 | 0 | 1 | 
